We go through eleven compounds from paper PMC5075052, “Modulation of the Substitution Pattern of 5-Aryl-2-Aminoimidazoles Allows Fine-Tuning of Their Antibiofilm Activity Spectrum and Toxicity” (Antimicrobial Agents and Chemotherapy, 2016).

Molecules are shown by their SMILES.

Series [1] relates to C. albicans SC5314 + E. coli MG1655. Briefly: Mixed C. albicans-E. coli biofilm, selective plating CFU. Type of series: cell-based, Candida albicans + Escherichia coli. Particulars: 37°C. The procedure:
Overnight cultures of C. albicans SC5314 (YPD) and E. coli MG1655 (TSB) were washed three times with PBS, after which they were diluted in RPMI 1640 medium to OD600s of 1 and 0.01, respectively. Equal volumes of these cell suspensions were mixed, and 100 μl of this mixed cell suspension together with compound was added to the wells of a microtiter plate in triplicate. Concentrations of 25 μM (0.0625% DMSO or ethanol) and 100 μM (0.25% DMSO or ethanol) were tested. After 24 h of incubation at 37°C, the medium was removed and the biofilm was washed with PBS. Next, the cells were resuspended in 100 μl of PBS by scraping them off, sonicated (1 min, 45 kHz; USC300-T; VWR, Radnor, PA, USA), and vigorously pipetted up and down. Finally, dilution series were made, and quantification of the E. coli MG1655 and C. albicans SC5314 populations was performed using selective plating on tryptic soy agar (TSA) plates containing 25 mg/liter amphotericin B and YPD plates containing 100 μg/ml tetracycline, respectively. The percentage of C. albicans SC5314 and E. coli MG1655 cells relative to the number of cells after DMSO or ethanol control treatment was determined.

The test system of series [2] is C. albicans SC5314 + S. aureus SH1000. The experiment in a line: Mixed C. albicans-S. aureus biofilm, selective plating CFU. Type of series: cell-based, Candida albicans + Staphylococcus aureus. Particulars: 37°C. The procedure:
Overnight cultures of C. albicans SC5314 (YPD, 30°C) and S. aureus SH1000 (LB, 37°C) were washed with PBS, after which they were diluted in RPMI 1640 medium to obtain cell suspensions of 10^6 cells/ml for fungal cells and 10^8 cells/ml for bacteria. Equal volumes of these cell suspensions were mixed, and 100 μl of this mixed cell suspension together with compound was added to the wells of a microtiter plate in triplicate. Concentrations of 25 μM (0.0625% DMSO or ethanol) and 100 μM (0.25% DMSO or ethanol) were tested. The plates were incubated at 37°C for 90 min. After incubation, the wells were washed twice with PBS, and 200 μl of fresh RPMI 1640 medium with or without compounds was added in triplicate to the wells. After 24 h of incubation at 37°C, the medium was removed and the biofilm was washed with PBS. Next, the cells were resuspended in 100 μl of PBS by scraping them off, sonicated (1 min, 45 kHz; USC300-T; VWR, Radnor, PA, USA), and vigorously pipetted up and down. Finally, dilution series were made, and quantification of the S. aureus SH1000 and C. albicans SC5314 populations was performed using selective plating on TSA plates containing 25 mg/liter amphotericin B and YPD plates containing 100 μg/ml tetracycline, respectively. The percentage of C. albicans SC5314 and S. aureus SH1000 cells relative to the number of cells after DMSO or ethanol control treatment was determined.

In series [3] the test system is eukaryotic tumor cell lines, bone cells, and the nematode Caenorhabditis elegans. Also noted: method as in PMID 25325155. The following applies: C. elegans; cited from earlier work.
Series [4] relates to bone marrow-derived mesenchymal stem cells (MSC). The experiment in a line: Mammalian cell viability assay, trypan blue staining. Type of series: cell-based. The following applies: 12.5 μM, 6 days of exposure. The procedure: (§1) The viability of two human primary cell types, namely, osteoblasts (OB) and bone marrow-derived mesenchymal stem cells (MSC), was tested according to the ISO 10993-5 standard, as previously described ([76]). Briefly, cells were seeded in 96-well tissue culture test plates (TPP; Trasadingen, Switzerland) at 5 × 10^3 cells/cm^2 in cell culture medium (advanced Dulbecco modified Eagle's medium [DMEM]) supplemented with 10% serum, 1× GlutaMAX, and 0.05 mg/ml gentamicin and were allowed to attach overnight. On the next day, the cells were exposed to (i) cell culture medium and medium with the corresponding control (0.5% ethanol or DMSO; negative controls), (ii) medium with 0.05% phenol (cytotoxic control), and (iii) medium with compounds (12.5 μM) and incubated for 2 h, 48 h, and 6 days (8 repeats for each condition). At each time point, the numbers of viable and dead cells were determined directly by trypan blue staining and indirectly by measuring metabolic activity with 3-(4,5-dimethylthiazol-2-yl)-2,5-diphenyltetrazolium bromide (MTT) staining.
The medium was removed from the wells, 1/3 trypan blue in DMEM was added to the cells, and the cells were incubated for 3 min, after which the trypan blue was removed and DMEM was added to the wells. In each of four wells, two microscopy fields were counted for viable (transparent) and dead (blue) cells.

Series [5] has the same test system. Briefly: Metabolic activity, MTT staining. Type of series: cell-based. The following applies: 12.5 μM, 6 days of treatment. The procedure:
as §1
(§2) The medium was removed from the wells, and 100 μl of medium supplemented with 10% serum and 0.5 mg/ml MTT was added to the cells. The cells were incubated overnight at 37°C in 5% CO2. On the next day, the medium with MTT was removed and 100 μl acidic isopropanol was added. The cells were then centrifuged at 2,300 × g, and 50 μl of the supernatant was transferred to a new 96-well plate. The absorbance at 570 nm was measured, and the background at 660 nm was measured. Four wells per condition were examined.

For the next series, the system named is osteoblasts (OB). The experiment in a line: Metabolic activity, MTT staining. Type of series: cell-based. Particulars: 12.5 μM, 6 days of treatment. The procedure:
as §1, §2

Where [6] appears, read: 25 μM compound, relative to solvent control.

On to `CCCCCCCCn1c(-c2ccc(Cl)cc2)cnc1N` [Compound 2], for which the “% CFU survival, E. coli” value in series [1] (25 μM compound) is listed as 158.6%; in series [1] (100 μM compound), 0.1%. The “% CFU survival, C. albicans” value in series [1] (setting [6]) amounted to 104.9%; in series [1] (100 μM compound) it was 0.0%; in series [2] (25 μM compound) it was 183.8%; in series [2] (100 μM compound) it was 0.9%. Moreover, the “% CFU survival, S. aureus” value is recorded as 87.7% in series [2] (25 μM compound) and 0.2% in series [2] (100 μM compound). In addition, the “toxicity (previously reported)” value in series [3] is listed as “strong toxicity”.
Turning to `CC(C)CNc1ncc(-c2ccc(Cl)cc2)[nH]1` [Compound 3], the “% CFU survival, E. coli” value is 138.5% in series [1] (25 μM compound) and 63.0% in series [1] (100 μM compound). Moreover, the “% CFU survival, C. albicans” value in series [1] (setting [6]) came to 143.4%; in series [1] (100 μM compound), 59.6%; in series [2] (25 μM compound), 165.7%; in series [2] (100 μM compound) it was 141.3%. Also, the figures for the “% CFU survival, S. aureus” value in series [2] (25 μM compound) and in series [2] (100 μM compound) were 124.6% and 51.8%, respectively.
Take `Clc1ccc(-c2cnc(NC3CCCC3)[nH]2)cc1` [Compound 5]: the “% CFU survival, E. coli” value in series [1] (25 μM compound) stood at 100.6%; in series [1] (100 μM compound), 105.6%. Further, the “% CFU survival, C. albicans” value in series [1] (setting [6]) turned out to be 100.8%; in series [1] (100 μM compound), 38.3%; in series [2] (25 μM compound), 232.4%; in series [2] (100 μM compound), 120.6%. Further, the “% CFU survival, S. aureus” value in series [2] (25 μM compound) came to 75.4%; in series [2] (100 μM compound), 74.5%.
In the case of `Brc1ccc(-c2cnc(NCCn3cc(C4CC4)nn3)[nH]2)cc1` [Compound 6], the “toxicity (previously reported)” value in series [3] was “higher level of toxicity”.
Regarding `CCCCCCCCn1c(-c2ccccc2)cnc1NCC(C)C` [Compound 8a], the “proliferation of MSC (trypan blue)” value in series [4] is “slightly reduced”.
For `CCCCCCCCn1c(-c2ccc(Br)cc2)cnc1NCC(C)C` [Compound 8c], in series [5], the “metabolic activity of MSC (MTT) compared to solvent control” value is recorded as “increased”. The “metabolic activity of OB (MTT) compared to solvent control” value in the series on osteoblasts (OB) is “increased”.
For `CCCCCCCCn1c(-c2ccc(Cl)c(Cl)c2)cnc1NCC(C)C` [Compound 8d], in series [4], the “proliferation of MSC (trypan blue)” value is given as “increase in proliferation”. For the same compound, in series [5], the “metabolic activity of MSC (MTT) compared to solvent control” value is given as “increased”. In the series on osteoblasts (OB), the “metabolic activity of OB (MTT) compared to solvent control” value is listed as “increased”.
Regarding `CCCCCCCCn1c(-c2ccccc2)cnc1NC1CCCC1` [Compound 8e], the “proliferation of MSC (trypan blue)” value in series [4] was “slightly reduced”.
For `CCCCCCCCn1c(-c2ccc(Cl)cc2)cnc1NC1CCCC1` [Compound 8f], in series [4], the “proliferation of MSC (trypan blue)” value is reported as “slightly reduced”.
Regarding `CCCCCCCCn1c(-c2ccc(Br)cc2)cnc1NC1CCCC1` [Compound 8g], in series [4], the “proliferation of MSC (trypan blue)” value was “slightly reduced”. Besides, the “metabolic activity of MSC (MTT) compared to solvent control” value in series [5] is reported as “increased”. For the same compound, the “metabolic activity of OB (MTT) compared to solvent control” value in the series on osteoblasts (OB) is reported as “increased”.
As to `CCCCCCCCn1c(-c2ccc(Cl)c(Cl)c2)cnc1NC1CCCC1` [Compound 8h], in series [5], the “metabolic activity of MSC (MTT) compared to solvent control” value is on record as “increased”. The “metabolic activity of OB (MTT) compared to solvent control” value in the series with osteoblasts (OB) is “increased”.
